Ends that are not written are not given here.

The test system of this experiment is wild-type C57BL/6 mice stressed with angiotensin II+isoproterenol infusion (heart failure model). The experiment is described as follows: Orexin A minipump infusion in mice stressed with angiotensin II + isoproterenol, echocardiography. The experiment is classed as in vivo, mouse. How it is done: Finally, to assess the potential of HCRTR2 as a novel therapeutic target for heart failure, wild-type mice were infused with saline (n=6) or the HCRTR2 agonist orexin A (n=7) for four weeks. At week two, all mice underwent infusion of angiotensin II and isoproterenol, neurohormones that mimic human heart failure. Echocardiography was performed blinded to drug infusion status at baseline, 2, 3 and 4 weeks (FIG. 3H).
Experimental mice were anesthetized with 1.5% isoflurane by a facemask. The Alzet osmotic minipumps (Model 2002 or 2004) from the Alzet Corporation (Cupertino, Calif., USA) were implanted subcutaneously in the back of mice, posterior to the scapulae. 14-week-old C57BL/6 mice were treated with either saline or orexin A (50 μg/kg/day) infusions using an Alzet (Cupertino, Calif.) osmotic minipump model 2004 (200 μl reservoir, 28-day release at 0.25 μl/hr) for a total of 4 weeks. At week 2, all mice were treated with angiotensin II (1.4 mg/kg/day) plus isoproterenol (15 mg/kg/day) infusion using an additional Alzet osmotic minipump, model 2002 (200 μl reservoir, 14-day release at 0.5 μl/hr) for two weeks, starting 2 weeks after initiation of the saline or orexin A infusion. Mice had echocardiography performed at baseline and weeks 2, 3 and 4.
For noninvasive echocardiography, mice were anesthetized with isoflurane via nose cone (maintenance: 1.5% isoflurane mixed with 1 L/minute 100% medical oxygen to obtain heart rate of 450±50 beats per minute). Mouse body temperature was monitored with a rectal thermometer. […]
Two-dimensional imaging (B-mode) was used to obtain a view of left and right ventricular movement during diastole and systole along the parasternal short axis. […] Early (E) wave was measured as the peak velocity during filling of the ventricle, and atrial (A) wave was measured as the peak velocity during atrial contraction, at the end of diastole. […] All data and images were saved and analyzed using a Vevo 2100 advanced cardiovascular package software with a semi-automated quantification of cardiac function (V 1.4.0 VisualSonics, Toronto, ON, Canada).

For “orexin A (QPLPDCCRQKTCSCRLYELLHGAGNHAAGILTL; ends and bridges not checked; cysteine pairing not given here; UniProt O43612 34-66, looked up) [HCRTR2 agonist]”, the “Ejection Fraction” value (WT mice, orexin A 50 μg/kg/day infusion for 4 weeks, angiotensin II+isoproterenol during latter 2 weeks, week 4, n=7, p=0.045 vs saline) is on record as 56.6%+/−4.5. For the same substance, the “heart function in a mouse model of heart failure” value (summary statement) was “successful in rescuing heart function”. Besides, the “systolic function compared to saline controls” value (wild-type mice, four weeks infusion, angiotensin II and isoproterenol from week two, p=0.045) is on record as “better systolic function compared to controls”.

These data come from patent publication US10172916B2, “Methods of treating heart failure with agonists of hypocretin receptor 2” (The Board of Trustees of the Leland Stanford Junior …, priority 2013, dated 2019).
